Experimental data from patent US10314854B2, “Methods for treating tumors in situ including intratumor injection of cytotoxic particles and immune checkpoint blockade therapy” (University of Iowa Research Foundation, priority 2015, dated 2019).
Where two headings read alike, the source gives them in different places.

What was measured:
[1] = system: bone-marrow-derived DCs; assay: MTS viability assay, DCs (Example 2); assay type: cell-based, BALB/c mice; details: 24 h; 1.125 μg/mL Dox; FIG. 8B
Protocol: To generate murine bone-marrow-derived DCs, bone marrow cells were flushed from tibias and femurs of BALB/c mice, and mononuclear cells isolated using Ficoll gradient separation (Fico/Lite-LM, Atlanta Biologicals, Flowery Branch, Ga.). Cells were cultured in medium supplemented with 20 ng/mL each GM-CSF and IL4 (PeproTech, Rocky Hill, N.J.) for 7 days. Non-adherent cells were harvested. Cells were >70% DCs as determined by CD11c staining.
(§1) The MTS assay for viability was used to determine the cytotoxic activity of Dox MPs against A20 and DCs (Promega, Madison, Wis.). Briefly, 5×10^3 A20 cells or DCs were incubated with Dox MPs (8 μg/mg) for 24, 48 or 72 h (4 wells per group) at a range of Dox concentrations. Blank MPs were used as negative controls. MTS was added for 4 h at 37° C. Following centrifugation, 90 μl of supernatant was removed. Absorbance was read at 490 nm using a Thermomax Microplate Reader (Molecular Devices, Sunnyvale, Calif.).

[2] = system: A20 cells; assay: MTS viability assay, A20 (Example 2); assay type: cell-based, murine
Protocol: as §1

[3] = lymphoma patients; 30 mg/m^2 Dox; cited from earlier work
[4] = system: A20 cells phagocytosed by DCs; assay: Phagocytosis assay of A20 by DCs; assay type: cell-based, murine; details: A20 treated 48 h, co-incubated with DCs 1:1 for 2 h
Protocol: A20 phagocytosis was quantified using A20 cells labeled with CellTrace Violet (Invitrogen, Carlsbad, Calif.). Labeled A20 were left untreated or treated with Dox MPs for 48 h (3 wells per group) at various concentrations. Controls included soluble Dox (at the same concentrations) and blank MPs (at equivalent weights). Treated A20 were washed and co-incubated with DCs at a 1:1 ratio for 2 h, stained with anti-CD11c-APC-Cy7 (BD), and analyzed by flow cytometry. The percentage of double-positive cells (CD11c and CellTrace Violet) was determined.

[5] = system: A20 cells; assay: MTS viability assay, A20 (Example 1); assay type: cell-based, murine; details: Mus musculus, 4.5 μg/mL Dox, MPs 4:1 loading, read-out: viable A20
Protocol: The A20 cell line (a BALB/c B cell lymphoma) and the EL4 cell line (a C57BL/6 T cell lymphoma) were purchased from ATCC (Manassas, Va.). Tumor cells were cultured in RPMI-1640 medium (Gibco, Carlsbad, Calif.) supplemented with 10% heat-inactivated FCS (HyClone, Logan, Utah), 100 U/mL penicillin, 100 μg/mL streptomycin, and 50 μM 2-ME (All from Gibco), as complete medium.
To determine the cytotoxic activity of MPs against A20 and EL4, the 3-(4,5 dimethylthiazol-2-yl)-5-(3-carboxymethoxyphenyl-2-(4-sulfophenyl)-2H-tetrazolium (MTS) assay for viability was conducted using CellTiter 96® AQueous Non-Radioactive Cell Proliferation Assay (Promega, Madison, Wis.). Five thousand A20 and EL4 cells were separately incubated with soluble Dox or Dox/CpG MPs (4:1 loading) in 96-well plates for 24, 48, and 72 h (four wells per group) at a final Dox concentration of 4.5 μg/mL. Media or blank MPs at equivalent weights were used as negative controls. The MTS/PMS reagent was then added for 4 h at 37° C. […] Absorbance was read at 490 nm using Thermomax Microplate Reader (Molecular Devices, Sunnyvale, Calif.). […] Viability was assessed as before.
Percent survival was expressed as the ratio of absorbance of treated cells relative to that of untreated cells in media group (after subtracting the absorbance of the blank from each) multiplied by 100. […]

## COc1cccc2c1C(=O)c1c(O)c3c(c(O)c1C2=O)C[C@@](O)(C(=O)CO)C[C@@H]3O[C@H]1C[C@H](N)[C@H](O)[C@H](C)O1 [soluble Dox, Doxorubicin]
[1]
  survival of DCs: 19%
[2]; 24 h, 1.125 μg/mL Dox, FIG. 8B comparison with DCs
  survival of A20: 26%
[2]; Mus musculus, A20, Day 1 (24 h), 0.5625 μg/mL Dox, FIG. 8A
  viability at 0.5625 µg/mL: 87%
[2]; Mus musculus, A20, Day 1 (24 h), 1.125 μg/mL Dox, FIG. 8A
  viability at 1.125 µg/mL: 46%
[2]; Mus musculus, A20, Day 2 (48 h), 1.125 μg/mL Dox
  viability at 1.125 µg/mL: 5%
[3]
  peak plasma concentration: 278 ng/mL
[4]
  phagocytosis of A20 tumor cells by DCs: enhanced phagocytosis of A20 cells
[5]; A20, 24 h, day 1
  viability at 4.5 µg/mL: 26%
[5]; A20, 48 h, day 2
  viability at 4.5 µg/mL: 4%
